Data set [1] deals with Radical scavenging activity. As to the kind of experiment: Antioxidant activity assessed as inhibition of DPPH radical generation relative to alpha-tocopherol. It is filed as functional. On the set-up: scale not given: the % may be the effect or the level left.
In data set [2] the test system is Radical scavenging activity. As to the kind of experiment: Antioxidant activity assessed as inhibition of DPPH radical generation. It is filed as functional.
Data set [3] can be described thus: Oral bioavailability in rat at 500 mg/kg. The class given is ADME, organism-based. Conditions: in vivo.

Regarding `COc1cc(C2NC(c3cc(OC)c(OC)c(OC)c3)C3CC(C)CC2C3=O)cc(OC)c1OC` (stereo unspecified), in data set [1], the Activity came to 20%.

As to `COc1ccc(C2NC(c3ccc(OC)c(OC)c3)C3CC(C)CC2C3=O)cc1OC` (stereo unspecified), the Activity in data set [1] came out at 20%.

As to `COc1ccc(OC)c(C2NC(c3cc(OC)ccc3OC)C3CC(C)CC2C3=O)c1` (stereo unspecified), in data set [1], the Activity came to 20%.

`Cc1c(C)c2c(c(C)c1O)CC[C@@](C)(CCC[C@H](C)CCC[C@H](C)CCCC(C)C)O2` [ALPHA-TOCOPHEROL]: the IC50 in data set [2] was found to be 59 µM.

On to `COc1cc(/C=C/C(=O)CC(=O)/C=C/c2ccc(O)c(OC)c2)ccc1O` [CURCUMIN], for which, in data set [2], the IC50 worked out at 35.1 µM. This compound also displayed a bioavailability in data set [3] of 1%.

These data come from ChEMBL document CHEMBL2069271, “Design, synthesis, stereochemistry and antioxidant properties of various 7-alkylated 2,4-diaryl-3-azabicyclo[3.3.1]nonan-9-ones” (Bioorg Med Chem Lett, 2012).
